Experimental data as given in patent publication US11440910B2, “Pesticidally active heterocyclic derivatives with sulfur containing substituents” (SYNGENTA PARTICIPATIONS AG, priority 2017, dated 2022).

Experiments:
Format in all cases: in vivo
[1] = system: Plutella xylostella (Diamond back moth); test: Example B3: Plutella xylostella, artificial diet; conditions: 120 h, application rate 200 ppm, L2 larvae, 5 days after infestation, read-out: effect in at least one of the two categories (mortality or growth inhibition)
Procedure: Example B3: Plutella Xylostella (Diamond Back Moth)
(§1) 24-well microtiter plates with artificial diet were treated with aqueous test solutions prepared from 10′000 ppm DMSO stock solutions by pipetting. After drying, the plates were infested with L2 larvae (10 to 15 per well). The samples were assessed for mortality and growth inhibition in comparison to untreated samples 5 days after infestation.

[2] = system: Bemisia tabaci (Cotton white fly); test: Example B7: Bemisia tabaci, cotton leaf discs sprayed; conditions: foliar, 144 h, application rate 200 ppm, adult white flies, 6 days after incubation
Procedure: Example B7: Bemisia Tabaci (Cotton White Fly)
Cotton leaf discs were placed on agar in 24-well microtiter plates and sprayed with aqueous test solutions prepared from 10′000 ppm DMSO stock solutions. After drying the leaf discs were infested with adult white flies. The samples were checked for mortality 6 days after incubation.

[3] = system: Myzus persicae (Green peach aphid); test: Example B5: Myzus persicae, sunflower leaf discs sprayed; conditions: foliar, 144 h, application rate 200 ppm, mixed ages, 6 days after infestation
Procedure: Example B5: Myzus Persicae (Green Peach Aphid)
Sunflower leaf discs were placed onto agar in a 24-well microtiter plate and sprayed with aqueous test solutions prepared from 10′000 ppm DMSO stock solutions. After drying, the leaf discs were infested with an aphid population of mixed ages. The samples were assessed for mortality 6 days after infestation.

Euschistus heros = test: Example B13: comparison against Euschistus heros, soybean plants sprayed; conditions: 120 h, Concentration 3 ppm, N2 nymphs on 2 week old soybean plants, 5 days after treatment
Procedure: Activity of compound P17 according to the present invention and of compound P15 from WO2016/026848 against Euschistus heros is summarized in Table B13.
2 week old soybean plants were sprayed with diluted aqueous test solutions. Afterwards plants were infested with 10 stink bug nymphs (N2). Soybean seeds were added as additional food source to the test system. 5 days after treatment the samples were assessed for mortality.

[4] = system: Diabrotica balteata (Corn root worm); test: Example B4: Diabrotica balteata, maize sprouts sprayed; conditions: 96 h, application rate 200 ppm, L2 larvae, 4 days after infestation, read-out: effect in at least one of the two categories (mortality or growth inhibition)
Procedure: Example B4: Diabrotica Balteata (Corn Root Worm)
as §1, with “Maize sprouts placed onto an agar layer in 24-well” for “24-well”, “plates” for “plates with artificial diet”, “spraying.” for “pipetting.”, “(6” for “(10”, “10” for “15”, “4” for “5”

[5] = system: Myzus persicae (Green peach aphid); test: Example B6: Myzus persicae, roots of pea seedlings in test solution; conditions: 144 h, test rate 24 ppm, mixed ages, 6 days after placing seedlings into test solutions
Procedure: Example B6: Myzus Persicae (Green Peach Aphid)
Roots of pea seedlings infested with an aphid population of mixed ages were placed directly into aqueous test solutions prepared from 10′000 DMSO stock solutions. The samples were assessed for mortality 6 days after placing seedlings into test solutions.

[6] = system: Euschistus heros (Neotropical brown stink bug); test: Example B8: Euschistus heros, soybean leaves sprayed; conditions: 120 h, application rate 200 ppm, N2 nymphs, 5 days after infestation, read-out: effect in at least one of the two categories (mortality or growth inhibition)
Procedure: Example B8: Euschistus Heros (Neotropical Brown Stink Bug)
Soybean leaves on agar in 24-well microtiter plates were sprayed with aqueous test solutions prepared from 10′000 ppm DMSO stock solutions. After drying the leaves were infested with N2 nymphs. The samples were assessed for mortality and growth inhibition in comparison to untreated samples 5 days after infestation.

With `CCS(=O)(=O)c1cc(C(C)(C)C#N)ccc1-c1nc2cc(C(F)(F)F)ncc2n1C` [Compound P17, 2-[3-ethylsulfonyl-4-[3-methyl-6-(trifluoromethyl)imidazo[4,5-c]pyridin-2-yl]phenyl]-2-methyl-propanenitrile] the percent effect (mortality or growth inhibition) at 200 ppm [1] was no less than 80%, the mortality at 200 ppm [2] was no less than 80% and the mortality at 200 ppm [3] was no less than 80%. For the same compound, the mortality at 3 ppm (Euschistus heros) was 95%, the percent effect (mortality or growth inhibition) at 200 ppm [4] was no less than 80% and the mortality at 24 ppm [5] was no less than 80%. For the same compound, the percent effect (mortality or growth inhibition) at 200 ppm [6] was no less than 80%.
